Test results published in patent US20130123460A1, “PEPTIDE FOR IMPROVING BIOSTABILITY OF BIOACTIVE SUBSTANCE, AND BIOACTIVE SUBSTANCE HAVING IMPROVED BIOSTABILITY” (priority 2010, published 2013).
Where a SMILES comes first, the peptide text is derived from it. Bridges are numbered along the chain shown (N, C = ends). Where no end group is shown, it is not given here.

Assays:
[1] = target: T1, endogenous SSTR 5 (Mus musculus, UniProt O08858); assay: Suppressibility of insulin secretion in MIN 6 cells; type: cell-based; settings: 20 mM glucose, 1-1000 nM
T1 construct: expressing an endogenous SSTR 5; endogenous in cells; host or cells: MIN 6 mouse insulinoma cells (obtained from a person)
T1 sequence (O08858 1-362): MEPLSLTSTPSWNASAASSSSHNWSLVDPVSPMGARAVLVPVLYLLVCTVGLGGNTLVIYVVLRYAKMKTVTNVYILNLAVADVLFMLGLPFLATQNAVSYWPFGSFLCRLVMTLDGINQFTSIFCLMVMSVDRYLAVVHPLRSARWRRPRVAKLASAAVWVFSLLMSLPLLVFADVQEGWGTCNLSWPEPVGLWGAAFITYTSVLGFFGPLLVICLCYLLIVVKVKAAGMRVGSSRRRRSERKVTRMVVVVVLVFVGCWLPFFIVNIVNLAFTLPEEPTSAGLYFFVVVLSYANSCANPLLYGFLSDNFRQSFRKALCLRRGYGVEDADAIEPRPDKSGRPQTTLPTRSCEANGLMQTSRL
Procedure: The suppressibility of insulin secretion was evaluated using MIN 6 (obtained from a person) which was an insulinoma cell derived from a mouse, expressing an endogenous SSTR 5. MIN 6 was seeded on a multi-plate, which was cultivated at 37° C. for 48 hours. […] A supernatant thereof was recovered, and an amount of insulin secreted was measured. The measurement of the insulin was performed in an enzyme-linked immunosorbent assay (ELISA), and an absorbance was measured at 450 nm (a sub-wavelength: 620 nm) after the addition of a substrate.
In this experiment, the activity evaluations of the native SRIF (Comparative Example 15) and the GAm (28-44)-SRIF-NH2(Example 29) were performed in a concentration of 1, 3, 10, 30, 100, 300, and 1000 nM, and the maximum suppression rate (%) of the insulin secretion was calculated. The maximum suppression rate (%) of the insulin secretion in the somatostatin peptide complex was calculated according to the following formula. Maximum Suppression Rate (%) of Insulin Secretion (%)=[{(the maximum value of the suppression of the insulin secretion in the SRIF peptide complex)/(the maximum value of the suppression of the insulin secretion in the native SRIF)]×100

[2] = Plasma stability of somatostatin peptide complex (remaining rate in rat plasma); settings: for remaining at 8 h, 0.5 μmol/L / remaining at 48 h, 0.5 μmol/L: SD, rat, plasma
Procedure: The plasma stability was evaluated in vitro, in order to inspect the biostability of the somatostatin peptide complex.
SD rats were anesthetized with diethyl ether, whole blood was collected, and a plasma fraction was separated therefrom. The somatostatin or somatostatin peptide complex was added to the plasma so that the final concentration thereof was 0.5 μmol/L, and the mixture was incubated at 37° C. A sample was recovered after 0, 8 or 48 hours, and a remaining rate was evaluated by an HPLC/MS measurement of an amount of the somatostatin or somatostatin peptide complex.

[3] = target: T2, endogenous VIP receptor (Homo sapiens, UniProt P41587); assay: cAMP productivity in SUP-T1 cells; type: cell-based; settings: 3-3000 nM, IBMX, 30 minutes
T2 construct: expressing an endogenous VIP receptor; host or cells: SUP-T1 human T-cell line
T2 sequence (P41587 24-438): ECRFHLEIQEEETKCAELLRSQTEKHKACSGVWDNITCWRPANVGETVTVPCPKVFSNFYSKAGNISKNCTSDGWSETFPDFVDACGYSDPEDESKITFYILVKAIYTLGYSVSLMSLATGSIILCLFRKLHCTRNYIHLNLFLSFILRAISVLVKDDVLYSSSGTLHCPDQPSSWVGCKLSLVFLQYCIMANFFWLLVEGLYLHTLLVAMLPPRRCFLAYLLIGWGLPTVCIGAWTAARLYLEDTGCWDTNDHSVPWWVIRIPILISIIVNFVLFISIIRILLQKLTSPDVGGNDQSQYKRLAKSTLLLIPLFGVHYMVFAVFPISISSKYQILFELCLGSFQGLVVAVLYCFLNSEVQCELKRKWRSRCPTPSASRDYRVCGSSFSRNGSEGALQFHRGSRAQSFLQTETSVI
Procedure: A productivity of cAMP was analyzed in vitro, in order to evaluate the activity intensity of the VIP peptide complexes showing the plasma stability in Experimental Example 4.
An intracellular cAMP productivity was evaluated using SUP-T1 cells which were derived from human T-cell, expressing an endogenous VIP receptor (purchased from ATCC). The SUP-T1 cells which were subjected to suspension culture for 48 or more hours were moved to a tube, and the cells were washed twice with a medium (RPMI-1640). After that, a medium including IBMX (3-isobutyl-1-methylxanthine), which was an inhibitor of a catabolic enzyme of the cAMP, was added thereto, and the mixture was incubated at 37° C. for 15 minutes. After centrifugation, the supernatant was removed, and an IBMX-containing medium including the VIP peptide complex was added thereto. The reaction was performed at 37° C. for 30 minutes. After the reaction, the tube was centrifuged, the supernatant was removed, and the cell lysate was added thereto. The mixture was incubated at 37° C. for 30 minutes to dissolve the cells, and the productivity was evaluated by the measurement of the cAMP. The cAMP measurement was performed using an enzyme-linked immunosorbent assay (ELISA) by chemiluminescence detection.
The activity intensity (%) of the VIP peptide complex was calculated according to the following formula.
Activity Intensity (%)=[{(the maximum amount of the cAMP produced in each VIP peptide complex)/(the maximum amount of the cAMP produced in native VIP)]×100

[4] = Plasma stability of VIP peptide complex (remaining rate in rat plasma); type: in vitro ADME, SD rats; settings: VIP complexes, 37° C.; for remaining at 8 h, 0.5 μmol/L / remaining at 48 h, 0.5 μmol/L: SD; for remaining at 8 h, 0.5 μmol/L: read-out: Remaining rate in plasma after 8 hours (%); for remaining at 48 h, 0.5 μmol/L: read-out: Remaining rate in plasma after 48 hours; for Remaining rate in plasma after 8 hours (%) / Remaining rate in plasma after 48 hours: 0.5 μmol/L
Procedure: The plasma stability was evaluated in vitro, in order to inspect the biostability of the VIP peptide complex.
SD rats were anesthetized with diethyl ether, whole blood was collected, and a plasma fraction was separated therefrom. The VIP or VIP-peptide complex was added to the plasma so that the final concentration thereof was 0.5 μmol/L, and the mixture was incubated at 37° C. A sample was recovered after 0, 8 or 48 hours, and a remaining rate was evaluated by an HPLC/MS measurement of an amount of the VIP or VIP peptide complex.

[5] = Plasma stability of ghrelin peptide complex (remaining rate in rat plasma); type: in vitro ADME, SD rats; settings: 37° C.
Procedure: Evaluation was performed in a manner in which after the treatment of the ghrelin or ghrelin peptide complex in plasma for a pre-determined time, an amount of change of the ghrelin or ghrelin peptide complex undecomposed was measured by an HPLC/MS.

[6] = somatostatin complexes, rat plasma, 0.5 μmol/L, 37° C.

Remaining rate in plasma after 48 hours [4] [%]	Compound	Activity Intensity (%), maximum amount of cAMP produced relative to native VIP [3] [%]	remaining at 8 h, 0.5 μmol/L [4] [%]	remaining at 48 h, 0.5 μmol/L [4] [%]	Remaining rate in plasma after 8 hours (%) [4]	also measured
	CC[C@H](C)[C@H](NC(=O)[C@H](CCC(=O)O)NC(=O)[C@H](CC(=O)O)NC(=O)[C@@H](NC(=O)[C@H](CC(C)C)NC(=O)[C@H](C)NC(=O)[C@H](CCCCN)NC(=O)[C@@H](NC(=O)CNC(=O)[C@H](CCC(=O)O)NC(=O)[C@@H](NC(=O)[C@@H](NC(=O)[C@H](CCCCN)NC(=O)[C@H](C)N)[C@@H](C)O)C(C)C)C(C)C)[C@@H](C)CC)C(=O)N[C@@H](CC(C)C)C(=O)N[C@@H](C)C(=O)N[C@@H](C)C(=O)N[C@@H](C)C(=O)NCC(=O)N[C@H]1CSSC[C@@H](C(N)=O)NC(=O)[C@H](CO)NC(=O)[C@H]([C@@H](C)O)NC(=O)[C@H](Cc2ccccc2)NC(=O)[C@H]([C@@H](C)O)NC(=O)[C@H](CCCCN)NC(=O)[C@H](Cc2c[nH]c3ccccc23)NC(=O)[C@H](Cc2ccccc2)NC(=O)[C@H](Cc2ccccc2)NC(=O)[C@H](CC(N)=O)NC(=O)[C@H](CCCCN)NC1=O [Example 29, GAm(28-44)-SRIF(1-14)-NH2] (H-AKTVEGVKALIDEILAAAGCKNFFWKTFTSC-NH2; disulfide 20-31; N-terminus assumed)					Suppression rate of insulin secretion (%), maximum, relative to native SRIF [1]: 90%; remaining at 8 h, 0.5 μmol/L [2]: 80%; remaining at 48 h, 0.5 μmol/L [2]: 23%; Remaining rate in plasma after 8 hours (%) [2, 6]: 80%; Remaining rate in plasma after 48 hours (%) ([2]; somatostatin complexes, rat plasma, 0.5 μmol/L, 37° C., 48 hours): 23%
47	HSDAVFTDNYTRLRKQMAVKKYLNSILNEGVKALIDEILAA-NH2 [Example 26, VIP(1-28)-GAm(32-44)-NH2]	85	99	47	not totally decomposed	
	CCCCCCCC(=O)OC[C@H](NC(=O)[C@H](CO)NC(=O)CN)C(=O)N[C@@H](Cc1ccccc1)C(=O)N[C@@H](CC(C)C)C(=O)N[C@@H](CO)C(=O)N1CCC[C@H]1C(=O)N[C@@H](CCC(=O)O)C(=O)N[C@@H](Cc1c[nH]cn1)C(=O)N[C@@H](CCC(N)=O)C(=O)N[C@@H](CCCNC(=N)N)C(=O)N[C@H](C(=O)N[C@@H](CCC(N)=O)C(=O)N[C@@H](CCC(N)=O)C(=O)N[C@@H](CCCNC(=N)N)C(=O)N[C@@H](CCCCN)C(=O)N[C@@H](CCC(=O)O)C(=O)N[C@@H](CO)C(=O)N[C@@H](CCCCN)C(=O)N[C@@H](CCCCN)C(=O)N1CCC[C@H]1C(=O)N1CCC[C@H]1C(=O)N[C@@H](C)C(=O)N[C@@H](CCCCN)C(=O)N[C@@H](CC(C)C)C(=O)N[C@@H](CCC(N)=O)C(=O)N1CCC[C@H]1C(=O)N[C@@H](CCCNC(=N)N)C(N)=O)C(C)C [Comparative Example 17, Ghrelin(1-28)-NH2]					Remaining rate in plasma after 2 hours (%) ([5]; 0.5 μmol/L, 2 hours): 14%; remaining at 0.5 h, 0.5 μmol/L ([5]; SD, 0.5 hour, read-out: Remaining rate in plasma after 0.5 hour (%)): 50%; remaining at 2 h, 0.5 μmol/L ([5]; SD, 2 hours, read-out: Remaining rate in plasma after 2 hours (%)): 14%; remaining at 8 h, 0.5 μmol/L ([5]; SD, 8 hours, read-out: Remaining rate in plasma after 8 hours (%)): 0%
	CC[C@H](C)[C@H](NC(=O)[C@H](CO)NC(=O)[C@H](CC(N)=O)NC(=O)[C@H](CC(C)C)NC(=O)[C@H](Cc1ccc(O)cc1)NC(=O)[C@H](CCCCN)NC(=O)[C@H](CCCCN)NC(=O)[C@@H](NC(=O)[C@H](C)NC(=O)[C@H](CCSC)NC(=O)[C@H](CCC(N)=O)NC(=O)[C@H](CCCCN)NC(=O)[C@H](CCCNC(=N)N)NC(=O)[C@H](CC(C)C)NC(=O)[C@H](CCCNC(=N)N)NC(=O)[C@@H](NC(=O)[C@H](Cc1ccc(O)cc1)NC(=O)[C@H](CC(N)=O)NC(=O)[C@H](CC(=O)O)NC(=O)[C@@H](NC(=O)[C@H](Cc1ccccc1)NC(=O)[C@@H](NC(=O)[C@H](C)NC(=O)[C@H](CC(=O)O)NC(=O)[C@H](CO)NC(=O)[C@@H](N)Cc1c[nH]cn1)C(C)C)[C@@H](C)O)[C@@H](C)O)C(C)C)C(=O)N[C@@H](CC(C)C)C(=O)N[C@@H](CC(N)=O)C(N)=O [Comparative Example 14, VIP(1-28)-NH2, reference compound]	100	0	0	completely decomposed	
	C[C@H](N)C(=O)NCC(=O)N[C@H]1CSSC[C@@H](C(N)=O)NC(=O)[C@H](CO)NC(=O)[C@H]([C@@H](C)O)NC(=O)[C@H](Cc2ccccc2)NC(=O)[C@H]([C@@H](C)O)NC(=O)[C@H](CCCCN)NC(=O)[C@H](Cc2c[nH]c3ccccc23)NC(=O)[C@H](Cc2ccccc2)NC(=O)[C@H](Cc2ccccc2)NC(=O)[C@H](CC(N)=O)NC(=O)[C@H](CCCCN)NC1=O [Comparative Example 15, SRIF(1-14)-NH2, reference compound]					Suppression rate of insulin secretion (%), maximum, relative to native SRIF [1]: 100%; remaining at 8 h, 0.5 μmol/L [2]: 0%; remaining at 48 h, 0.5 μmol/L [2]: 0%; Remaining rate in plasma after 8 hours (%) [2, 6]: completely decomposed
35	HSDAVFTDNYTRLRKQMAVKKYLNSILNAKTVEGVKALIDEILAA-NH2 [Example 27, VIP(1-28)-GAm(28-44)-NH2]	67	109	35	not totally decomposed	

Compound	Remaining rate in plasma after 48 hours [4] [%]	Activity Intensity (%), maximum amount of cAMP produced relative to native VIP [3] [%]	remaining at 8 h, 0.5 μmol/L [4] [%]	remaining at 48 h, 0.5 μmol/L [4] [%]	Remaining rate in plasma after 8 hours (%) [4]	also measured
CC[C@H](C)[C@H](NC(=O)[C@H](CCC(=O)O)NC(=O)[C@H](CC(=O)O)NC(=O)[C@@H](NC(=O)[C@H](CC(C)C)NC(=O)[C@H](CC(N)=O)NC(=O)[C@H](CC(C)C)NC(=O)[C@@H](NC(=O)[C@H](CO)NC(=O)[C@H](CC(N)=O)NC(=O)[C@H](CC(C)C)NC(=O)[C@H](Cc1ccc(O)cc1)NC(=O)[C@H](CCCCN)NC(=O)[C@H](CCCCN)NC(=O)[C@@H](NC(=O)[C@H](C)NC(=O)[C@H](CCSC)NC(=O)[C@H](CCC(N)=O)NC(=O)[C@H](CCCCN)NC(=O)[C@H](CCCNC(=N)N)NC(=O)[C@H](CC(C)C)NC(=O)[C@H](CCCNC(=N)N)NC(=O)[C@@H](NC(=O)[C@H](Cc1ccc(O)cc1)NC(=O)[C@H](CC(N)=O)NC(=O)[C@H](CC(=O)O)NC(=O)[C@@H](NC(=O)[C@H](Cc1ccccc1)NC(=O)[C@@H](NC(=O)[C@H](C)NC(=O)[C@H](CC(=O)O)NC(=O)[C@H](CO)NC(=O)[C@@H](N)Cc1c[nH]cn1)C(C)C)[C@@H](C)O)[C@@H](C)O)C(C)C)[C@@H](C)CC)[C@@H](C)CC)C(=O)N[C@@H](CC(C)C)C(=O)N[C@@H](C)C(=O)N[C@@H](C)C(N)=O [Example 25, VIP(1-28)-GAm(37-44)-NH2]	118	81	118	118	not totally decomposed	
